Test system: panel of cancer cell lines
Assay: Cell viability (CellTiter-Glo) dose-response across cancer cell line panel;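 note: after 72 h compound incubation with CellTiter-Glo ATP readout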
Format: cell-based, human
Settings: Homo sapiens
Excerpt: Next, we explored the effect of CSN5 inhibition on the viability of cancer cells. To obtain a comprehensive picture, we generated dose–response curves with a CSN5 inhibitor across more than 500 cancer cell lines in a previously described standardized setting[47] (Supplementary Data 1).
A standardized CellTiter-Glo Assay (Promega #G7570) based on the quantification of ATP was applied according to the manufacturer's protocol to measure the amount of viable cells in culture. In brief, cells were seeded into 384-well plates at optimal density for each cell line. After 4 h, compounds were added at different concentrations in growth medium and incubated for another 72 h in a humidifying chamber at 37 °C and 5% CO2. […] EC50 values were calculated from the plot of percentage of inhibition versus inhibitor concentration using the nonlinear regression analysis software Origin 7.5SR6 (OriginLab Corp.).

COCc1ccccc1NCc1ccc([C@@H]2[C@H](O)CCCc3cncn32)c(-c2ccccc2Cl)c1 [CSN5i-2e, (5R,6R)-5-(2′-chloro-5-(((2-(methoxymethyl)phenyl)amino)methyl)-[1,1′-biphenyl]-2-yl)-6,7,8,9-tetrahydro-5H-imidazo[1,5-a]azepin-6-ol] gave an EC50 (MSTO-211H, MSTO-211H cells) of 10.8 µM, an EC50 (MV4-11, MV-4-11 cells) of 6.71 µM and an EC50 (Malme-3M, Malme-3M cells) of 13.6 µM. It also gave an EC50 (Mono-Mac-1, MONO-MAC-1 cells) of 3.69 µM, an EC50 (NALM-6, NALM-6 cells) of 6.94 µM and an EC50 (NB1, NB-1 cells) of 11.7 µM. It also gave an EC50 (NB-4, NB-4 cells) of 8.86 µM, an EC50 (NCI-H23, NCI-H23 cells) of 23.9 µM and an EC50 (NCI-H28, NCI-H28 cells) of 15 µM. The EC50 (NCI-H146, NCI-H146 cells) was 11.6 µM, the EC50 (NCI-H211, NCI-H211 cells) was 20.6 µM and the EC50 (NCI-H322, NCI-H322 cells) was 12.9 µM. The EC50 (NCI-H441, NCI-H441 cells) was 24.7 µM, the EC50 (NCI-H460, NCI-H460 cells) was 10.1 µM and the EC50 (NCI-H661, NCI-H661 cells) was 20.1 µM. It also gave an EC50 (NCI-H747, NCI-H747 cells) of 10.7 µM, an EC50 (NCI-H810, NCI-H810 cells) of over 30 µM and an EC50 (NCI-H838, NCI-H838 cells) of over 30 µM. The EC50 (NCI-H841, NCI-H841 cells) was 11 µM, the EC50 (NCI-H1048, NCI-H1048 cells) was 15.8 µM and the EC50 (NCI-H1155, NCI-H1155 cells) was 8.05 µM. It also gave an EC50 (NCI-H1299, NCI-H1299 cells) of 8.56 µM, an EC50 (NCI-H1339, NCI-H1339 cells) of 11.2 µM and an EC50 (NCI-H1341 cells) of 10.2 µM. The EC50 (NCI-H1355, NCI-H1355 cells) was 12 µM, the EC50 (NCI-H1373, NCI-H1373 cells) was 13 µM and the EC50 (NCI-H1437, NCI-H1437 cells) was 11.7 µM. It also gave an EC50 (NCI-H1568, NCI-H1568 cells) of 11.2 µM, an EC50 (NCI-H1581, NCI-H1581 cells) of 7.75 µM and an EC50 (NCI-H1650, NCI-H1650 cells) of 12.6 µM. The EC50 (NCI-H1666, NCI-H1666 cells) was 12.9 µM, the EC50 (NCI-H1693, NCI-H1693 cells) was 14.7 µM and the EC50 (NCI-H1703, NCI-H1703 cells) was 6.5 µM. It also gave an EC50 (NCI-H1755, NCI-H1755 cells) of 12.8 µM, an EC50 (NCI-H1975, NCI-H1975 cells) of 11.3 µM and an EC50 (NCI-H2023, NCI-H2023 cells) of 12.4 µM. The EC50 (NCI-H2030, NCI-H2030 cells) was 29.9 µM, the EC50 (NCI-H2073, NCI-H2073 cells) was 20.3 µM and the EC50 (NCI-H2087, NCI-H2087 cells) was 13 µM. It also gave an EC50 (NCI-H2110, NCI-H2110 cells) of 11.8 µM, an EC50 (NCI-H2122, NCI-H2122 cells) of 10.1 µM and an EC50 (NCI-H2170, NCI-H2170 cells) of 10.4 µM. It also gave an EC50 (NCI-H2171, NCI-H2171 cells) of 17.6 µM, an EC50 (NCI-H2228, NCI-H2228 cells) of over 30 µM and an EC50 (NCI-H2286, NCI-H2286 cells) of 10.5 µM. It also gave an EC50 (NCI-H2444, NCI-H2444 cells) of 11.6 µM, an EC50 (NCI-H2452, NCI-H2452 cells) of over 30 µM and an EC50 (NCI-H3255, NCI-H3255 cells) of 13.2 µM. For the same compound, the EC50 (NO36 cells) was 13.1 µM, the EC50 (NOMO-1, NOMO-1 cells) was 7.28 µM and the EC50 (NUGC-3, NUGC-3 cells) was 9.54 µM. The EC50 (OCI-AML-3, OCI-AML3 cells) was 7.14 µM, the EC50 (OCI-AML-5, OCI-AML5 cells) was 9.5 µM and the EC50 (OCI-Ly3, OCI-LY3 cells) was 5.42 µM. It also gave an EC50 (OCI-M1, OCI-M1 cells) of 7.25 µM, an EC50 (ONCO-DG-1, ONCO-DG-1 cells) of 7.45 µM and an EC50 (OUMS-23, OUMS-23 cells) of 12.2 µM. The EC50 (OV56, OV56 cells) was 12.7 µM, the EC50 (OVCAR-4, OVCAR-4 cells) was 9.93 µM and the EC50 (OVISE cells) was 12.1 µM. For the same compound, the EC50 (P3HR-1, P3HR-1 cells) was 7.82 µM, the EC50 (P12-Ichikawa, P12-ICHIKAWA cells) was 7.02 µM and the EC50 (P31-FUJ, P31/FUJ cells) was 13.4 µM. For the same compound, the EC50 (PANC-1, PANC-1 cells) was 12.2 µM, the EC50 (PANC-03-27, Panc 03.27 cells) was 21.9 µM and the EC50 (PC-3, PC-3 cells) was 10.7 µM. It also gave an EC50 (PC-14, PC-14 cells) of 12.6 µM, an EC50 (PE/CA-PJ49 cells) of 12.7 µM and an EC50 (PF-382, PF-382 cells) of 4.99 µM. It also gave an EC50 (PK-1, PK-1 cells) of 15.9 µM, an EC50 (PK-45H cells) of 9.52 µM and an EC50 (PK-59, PK-59 cells) of 11.5 µM. The EC50 (PL-21, PL-21 cells) was 6.39 µM, the EC50 (PLC-PRF-5, PLC/PRF/5 cells) was 19.8 µM and the EC50 (PSN1, PSN1 cells) was 11 µM. It also gave an EC50 (PaTu 8988s, PA-TU-8988S cells) of 26.6 µM, an EC50 (PaTu 8988t, PA-TU-8988T cells) of 10.6 µM and an EC50 (Panc 02.03, Panc 02.03 cells) of over 30 µM. It also gave an EC50 (Panc 04.03, Panc 04.03 cells) of 13.1 µM, an EC50 (QGP-1, QGP-1 cells) of 11.8 µM and an EC50 (RCM-1, RCM-1 cells) of 13.6 µM. For the same compound, the EC50 (RD, RD cells) was 9.86 µM, the EC50 (RERF-LC-AI cells) was 11.7 µM and the EC50 (RERF-LC-MS cells) was 24.1 µM. It also gave an EC50 (RKN cells) of 28.9 µM, an EC50 (RKO, RKO cells) of 17.9 µM and an EC50 (RPMI 8402, RPMI-8402 cells) of 7.36 µM. It also gave an EC50 (RPMI-7951, RPMI-7951 cells) of 11.4 µM, an EC50 (RT-112, RT-112 cells) of 11.2 µM and an EC50 (Rh41, RH-41 cells) of 4.52 µM. For the same compound, the EC50 (SCC-25, SCC-25 cells) was 11.6 µM, the EC50 (SCaBER, SCaBER cells) was over 30 µM and the EC50 (SEM cells) was 9.47 µM. The EC50 (SF-268, SF-268 cells) was 12.7 µM, the EC50 (SH-4, SH-4 cells) was 11.1 µM and the EC50 (SH-10-TC, SH-10-TC cells) was 10.6 µM. For the same compound, the EC50 (SH-SY5Y, SH-SY5Y cells) was 8.13 µM, the EC50 (SJRH30, SJRH30 cells) was 15.5 µM and the EC50 (SK-CO-1, SK-CO-1 cells) was 10.7 µM. The EC50 (SK-ES1, SK-ES-1 cells) was 13.2 µM, the EC50 (SK-HEP1, SK-HEP-1 cells) was over 30 µM and the EC50 (SK-LU-1, SK-LU-1 cells) was 8.59 µM. It also gave an EC50 (SK-MEL3, SK-MEL-3 cells) of 10.3 µM, an EC50 (SK-MEL-2, SK-MEL-2 cells) of 14.9 µM and an EC50 (SK-MEL-5, SK-MEL-5 cells) of 10.6 µM. The EC50 (SK-MEL-28, SK-MEL-28 cells) was 13.2 µM, the EC50 (SK-MEL-30, SK-MEL-30 cells) was 12.1 µM and the EC50 (SK-MEL-31 cells) was 23.9 µM. The EC50 (SK-MES-1, SK-MES-1 cells) was 28 µM, the EC50 (SK-N-SH, SK-N-SH cells) was 26.6 µM and the EC50 (SKM-1, SKM-1 cells) was 13.6 µM. It also gave an EC50 (SKNBE2, SK-N-BE(2) cells) of 11.4 µM, an EC50 (SNB-19, SNB-19 cells) of 25 µM and an EC50 (SNG-M cells) of 20.9 µM. The EC50 (SNU668, SNU-668 cells) was 11.5 µM, the EC50 (SNU878, SNU-878 cells) was 7.43 µM and the EC50 (SNU-8 cells) was over 30 µM. For the same compound, the EC50 (SNU-16, SNU-16 cells) was 8.93 µM, the EC50 (SNU-61 cells) was over 30 µM and the EC50 (SNU-175 cells) was 17.1 µM. The EC50 (SNU-213 cells) was 13.4 µM, the EC50 (SNU-324 cells) was 12.8 µM and the EC50 (SNU-349 cells) was over 30 µM. For the same compound, the EC50 (SNU-387, SNU-387 cells) was 9.94 µM, the EC50 (SNU-398, SNU-398 cells) was 6.84 µM and the EC50 (SNU-410 cells) was 22.2 µM. For the same compound, the EC50 (SNU-423, SNU-423 cells) was 12.7 µM, the EC50 (SNU-449, SNU-449 cells) was 25.6 µM and the EC50 (SNU-475, SNU-475 cells) was over 30 µM.
